In patent US11578067B2, “Compound, and method for producing regulatory T cells” (Kyoto University, priority 2017, dated 2023):

Experiments:
[1] = test system: CD4+ CD25− Foxp3− CD62L+ CD44− naive T cells; assay: In vitro Foxp3 induction in naive T cells (Foxp3-GFP, flow cytometry); type: cell-based, mouse; settings: hTGF-β1 2 ng/mL alone, anti-CD3/CD28, 72 hours
Method: The eFox mice were generated in accordance with a method described in Science. […] The prepared total lymphocytic cells were stained with an anti-CD4 antibody (RM-4.5; manufactured by BD), an anti-CD62L antibody (MEL-14; manufactured by BD), and an anti-CD44 antibody (IM7; manufactured by BD), and CD4^+ CD25^− Foxp3^− CD62L^+ CD44^− naive T cells were prepared using FACSAria™ II (manufactured by BD).
The cells after the treatment were stained with an anti-CD4 antibody (manufactured by BD), and a proportion of Foxp3-GFP-positive cells was analyzed by a flow cytometry method.

[2] = test system: human naive CD4+ T cells (CD4+ CD25− CD45RA+ Foxp3−); assay: Foxp3 induction in human naive CD4+ T cells with anti-TGF-β antibody or TGF-β; type: cell-based; settings: hTGF-β1 2 ng/mL alone, hIL-2, 72 hours
Method: Human naive CD4^+ T cells (CD4^+ CD25^− CD45RA^+ Foxp3^−) were prepared from human peripheral blood mononuclear cells (manufactured by Wako Pure Chemical Industries, Ltd.) in the same manner as in Example 17. As shown in the following items (i) to (iv), the prepared naive T cells (2×10^5 cells) were stimulated using 5 μL of an anti-CD3/CD28 antibody (Gibco Dynabeads Human T-Activator CD3/CD28; manufactured by Thermo Fisher Scientific) in the presence/absence of 2 ng/mL of hTGF-β1 (manufactured by R&D) or 10 μg/mL of an anti-TGF-β antibody (manufactured by R&D), hIL-2 (manufactured by Shionogi & Co., Ltd.) (50 U/ml), and 100 nM of Compound 1 Salt, and treated under a 5% CO2 atmosphere at 37° C. for 72 hours.
(§1) The cells after the treatment were stained with an anti-CD4 antibody (manufactured by BD) and an anti-Foxp3 antibody (manufactured by eBioscience), and a proportion of Foxp3-positive cells was analyzed by a flow cytometry method.

[3] = test system: human effector memory CD4+ T cells (CD4+ CD25− CD45RA− Foxp3−); assay: Foxp3 induction in human effector memory CD4+ T cells; type: cell-based; settings: TGF-β 2 ng/mL alone, hIL-2, 72 hours
Method: Human peripheral blood mononuclear cells (manufactured by Wako Pure Chemical Industries, Ltd.) were stained using an anti-CD4 antibody (RPA-T4; manufactured by BD), an anti-CD25 antibody (M-A251; manufactured by BD), and an anti-CD45RA antibody (HI100; manufactured by BD), and human effector memory CD4^+ T cells (CD4^+ CD25^− CD45RA^− Foxp3^−) were prepared using FACSAria™ II (manufactured by BD).
as §1

[4] = test system: mouse actively-sensitized antibody-induced nasal allergy model; assay: Actively-sensitized antibody-induced nasal allergy model, nasal rubbing; type: in vivo
Method: The mouse actively-sensitized antibody-induced nasal allergy model was generated by the following method. Seven-week-old BALB/c mice (manufactured by SLC, male) were initially sensitized by intraperitoneal administration of 200 μL of a mixed liquid of OVA (manufactured by Wako Pure Chemical Industries, Ltd.) (0.5 mg/mL) (100 μg/mouse), 5 mg/mL of aluminum hydroxide (ALUM; manufactured by Wako Pure Chemical Industries, Ltd.), and 1.5 μg/mL of pertussis toxin (manufactured by Wako Pure Chemical Industries, Ltd.). Next, 5 days after the initial sensitization, as additional sensitization, OVA (50 μg/mouse) was administered into the dorsal skin of the mice to perform systemic sensitization. After that, OVA (100 μg/mouse) was administered to the mice as nasal drops at a frequency of once a day as local sensitization for 8 days from day 18 after the initial sensitization to elicit a nasal allergy symptom due to active sensitization.
A 0.5% (w/v) methylcellulose solution serving as a vehicle was used for a vehicle control group, and dexamethasone (manufactured by Tokyo Chemical Industry Co., Ltd.) was used for a positive control.

[5] = test system: OVA-induced asthma model; assay: OVA-induced asthma model, airway resistance after methacholine; type: in vivo, mouse; settings: 0.5 mg/kg oral once a day, 34 days, 25 mg/mL methacholine
[6] = test system: Th1-type asthma model; assay: Th1-type asthma model, airway resistance after methacholine; type: in vivo, mouse; settings: 0.5 mg/kg oral once a day, 17 days, 25 mg/mL methacholine
[7] = test system: naive Th cells; assay: Induction from naive T cells to Tregs by CDK8/19 inhibitory drugs (CD25+ Foxp3+ cells, EC150); type: cell-based, mouse; settings: concentration giving 150% CD25+ Foxp3+ cells versus 0.1% DMSO, 44 hours, geometric average of three trials
Method: The naive T cells were generated by the following method. […] Naive Th cells were prepared from the cell suspension using Naive CD4^+ T cell Isolation Kit, mouse (manufactured by Miltenyi Biotec). […] Further, Anti-Biotin MicroBeads and CD44 MicroBeads were added, followed by incubation at 4° C. for 10 minutes and then a centrifugation operation (300xg, 10 minutes). After the removal of the supernatant, the cells were resuspended in MEM and applied to an LS column (manufactured by Miltenyi Biotech). The cells contained in the flow-through liquid were used in the subsequent experiments. The prepared naive Th cells (2×10^5 cells) were stimulated with an anti-CD3/CD28 antibody (Gibco Dynabeads Mouse T-Activator CD3/CD28; manufactured by Thermo Fisher Scientific) in the presence of various CDK8/19 inhibitory drugs (usage amount: from 1 nM to 10,000 nM [[μM]]) at 5% CO2 at 37° C. […] The stained cells were measured using Canto II (manufactured by BD) by a flow cytometry method, and a proportion of CD25^+ Foxp3^+ cells in CD4^+ viable cells was analyzed using FlowJo (manufactured by FlowJo).

[8] = target: CDK8 (Homo sapiens, UniProt P49336); assay: CDK8 kinase activity measurement (QSS Assist CDK8/CycC_ELISA kit)
CDK8, sequence (P49336 whole entry): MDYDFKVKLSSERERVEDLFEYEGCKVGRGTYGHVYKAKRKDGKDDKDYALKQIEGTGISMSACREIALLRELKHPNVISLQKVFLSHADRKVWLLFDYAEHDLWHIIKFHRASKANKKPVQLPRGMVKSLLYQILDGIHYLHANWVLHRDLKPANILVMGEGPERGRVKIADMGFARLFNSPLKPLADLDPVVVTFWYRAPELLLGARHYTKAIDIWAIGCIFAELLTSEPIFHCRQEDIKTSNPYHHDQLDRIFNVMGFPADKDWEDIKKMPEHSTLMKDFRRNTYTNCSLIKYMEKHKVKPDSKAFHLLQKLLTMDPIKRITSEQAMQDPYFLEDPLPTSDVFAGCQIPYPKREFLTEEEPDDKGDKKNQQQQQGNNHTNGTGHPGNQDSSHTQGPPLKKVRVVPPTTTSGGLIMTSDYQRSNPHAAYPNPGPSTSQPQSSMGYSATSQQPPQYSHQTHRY
CDK8, sequence (P24863 whole entry partner): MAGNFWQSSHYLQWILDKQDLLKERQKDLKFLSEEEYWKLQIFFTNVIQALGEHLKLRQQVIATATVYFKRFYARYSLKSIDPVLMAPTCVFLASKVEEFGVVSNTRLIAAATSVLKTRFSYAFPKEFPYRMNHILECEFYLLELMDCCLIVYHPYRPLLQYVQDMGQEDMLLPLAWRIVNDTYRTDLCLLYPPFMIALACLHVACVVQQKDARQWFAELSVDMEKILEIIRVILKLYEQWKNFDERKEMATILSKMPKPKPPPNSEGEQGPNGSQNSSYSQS

[9] = target: CDK19 (Homo sapiens, UniProt Q9BWU1); assay: CDK19 kinase activity measurement (QSS Assist CDC2L6/CycC_ELISA kit)
CDK19, sequence (Q9BWU1 whole entry): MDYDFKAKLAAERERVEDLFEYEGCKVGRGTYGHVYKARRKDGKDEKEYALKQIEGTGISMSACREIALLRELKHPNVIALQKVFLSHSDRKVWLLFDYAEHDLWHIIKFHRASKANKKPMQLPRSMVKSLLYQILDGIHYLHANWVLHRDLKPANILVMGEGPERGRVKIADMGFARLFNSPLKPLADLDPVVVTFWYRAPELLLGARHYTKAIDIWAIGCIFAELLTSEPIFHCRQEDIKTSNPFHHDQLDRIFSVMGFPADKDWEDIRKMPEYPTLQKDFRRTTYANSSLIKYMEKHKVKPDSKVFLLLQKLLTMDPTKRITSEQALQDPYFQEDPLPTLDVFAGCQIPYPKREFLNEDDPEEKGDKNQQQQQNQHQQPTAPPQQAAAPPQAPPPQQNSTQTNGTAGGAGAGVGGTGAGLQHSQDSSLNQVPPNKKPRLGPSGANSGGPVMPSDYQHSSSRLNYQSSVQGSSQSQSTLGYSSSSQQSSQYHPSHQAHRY
CDK19, sequence (P24863 whole entry partner): as the sequence (P24863 whole entry partner) above

In the case of “TGF-β: hTGF-β1 (manufactured by R&D), used as control and in combination”, the “proportion of Foxp3-GFP-positive cells” value [1] is reported as 44.3%, the “proportion of Foxp3-positive cells” value [2] is reported as 26.9% and the “proportion of Foxp3-positive cells” value [3] is reported as 28.5%.

COc1ccc(N2CCC(n3c(-c4nccnc4N)nc4c(C)nccc43)CC2)cc1 [Compound 2, 3-{1-[1-(4-methoxyphenyl)piperidin-4-yl]-4-methyl-1H-imidazo[4,5-c]pyridin-2-yl}pyrazin-2-amine] was tested, and the “number of times of nasal rubbing” value ([4]; 1.0 mg/kg oral daily) was “significantly suppressed”, the “number of times of nasal rubbing” value ([4]; 3.0 mg/kg oral daily) was “significantly suppressed” and the “airway reactivity (sRaw)” value [5] was “suppressed an increase in airway reactivity”. The “airway reactivity (sRaw)” value [6] was “suppressed an increase in airway reactivity”, the EC150 [7] was 10.2 nM and the IC50 [8] was 0.7 nM. It also gave an IC50 [9] of 1.9 nM.

NC(=O)[C@H](Nc1cncc(-c2ccc(O)c(Cl)c2)c1)c1ccccc1 [(R)-2-[5-(3-Chloro-4-hydroxyphenyl)-pyridin-3-ylamino]-2-phenylacetamide] gave an EC150 [7] of 2.8 nM.

N#Cc1ccc2ncnc(NCCc3ccccc3)c2c1 [Senexin A] was tested, and the EC150 [7] was 192.2 nM.
